Entries after “also recorded” stand apart in the source; their conditions may differ. Non-standard residues stand in square brackets, D forms with d. Residues, ends and D or L forms follow the SMILES beside them. Dab = NCC[C@H](N)C(=O)O; Lac = C[C@H](O)C(=O)O
Experiments:
[1] = tested on: RNA duplex 1 (5′-rCrGrCrUrArArArUrCrG-3′ & 5′-rCrGrArUrUrUrArGrCrG-3′); test: RNA thermal denaturation (Tm) by UV hyperchromicity at 260 nm with synthetic peptides/depsipeptides, RNA duplex 1; format: binding; conditions: 100 mM NaCl
Protocol: Each sample contained RNA duplex 1 (5′-rCrGrCrUrArArArUrCrG-3′ and 5′-rCrGrArUrUrUrArGrCrG-3′, 2.5 μM strand) and peptide/depsipeptide (100 μM) in buffered solution (10 mM phosphate, 100 mM NaCl, pH 7.0 or 10 mM acetate, 100 mM NaCl, pH 5.0). a Structures of depsipeptides used to systematically characterize cationic side chain effects on RNA duplex stability. Lactic acid residues are highlighted. Ac acetyl, Aba acetamidobenzoic acid, which was appended to the N-terminus to increase UV absorbance. b Structures of the Fmoc-didepsipeptide building blocks used for solid-phase synthesis of depsipeptide sequences. Fmoc fluorenylmethoxycarbonyl. c Comparative effects of oligo-didepsipeptide sequences 2–6 and analogous oligo-dipeptide and on the Tm of the RNA duplex (number of independent measurements: n = 3 for Arg and Lys sequences; n = 2 for His and Dab sequences; n = 4 for Orn sequences). The shaded areas correspond to the mean ± SD Tm measured for the RNA duplex alone (n = 16 independent measurements). Data are shown as a scatter plot with mean ± SD. d Comparative effects on RNA duplex Tm of depsipeptide sequences containing a single backbone ester (number of independent measurements: n = 3 for Arg; n = 2 for His, Orn, and Dab; n = 4 for Lys), relative to RNA duplex alone (n = 16 independent measurements). Data are shown as a scatter plot with mean ± SD. e To assess the impact of different cationic side chains on depsipeptide degradation rates, depsipeptides 7–11 (40 μM) were incubated at 37 °C in buffer (100 mM HEPES, 10 mM NaCl, pH 7.3). After 5 min, the reactions were quenched by the addition of 3% TFA, and samples were analyzed by HPLC.
(§1) Prior to Tm analyses, RNA samples were annealed in the appropriate buffer by heating to 75 °C and slowly cooling to room temperature. Depsipeptide/peptide was added to the annealed RNA and incubated at 4 °C for 20 min prior to carrying out the analysis. For analyses involving dry-down reaction mixtures, the Tm was determined by monitoring fluorescence increase upon melting of a fluorophore/quencher-labeled RNA duplex (5′-rCrGrArUrUrUrArGrCrG-/3IABkFQ/-3′ and 3′-rGrCrUrArArArUrCrGrC-FAM-5′) using a BioRad CFX Connect rtPCR instrument with a heating ramp of 1 °C/min and 20 μL final sample volumes. For analyses involving pure, synthetic compounds, the Tm of the RNA was determined by monitoring UV hyperchromicity at 260 nm using a Varian Cary Bio-100 spectrophotometer, with a heating ramp of 1 °C/min and 0.5- or 1-cm pathlength cells. The following RNA sequences were used: RNA duplex 1 = 5′-rCrGrCrUrArArArUrCrG-3′ and 5′-rCrGrArUrUrUrArGrCrG-3′; RNA duplex 2 = 5′-rArArArArUrUrUrArUrArUrUrArUrUrA-3′ and 5′-rUrArArUrArArUrArUrArArArUrUrUrU-3′; RNA duplex 3 = 5′-rArArCrGrUrArUrArCrGrUrU-3′ (palindromic); and H26a RNA = 5′-rArUrGrArGrUrArArCrCrGrUrArArGrGrUrGrArArArUrU-3′. RNA was present in each assay at a final concentration of 2.5 μM of the folded structure (2.5 μM each strand for duplex 1 and duplex 2, 5.0 μM palindromic strand for duplex 3, 2.5 μM strand for H26a RNA). Tm values were determined by nonlinear fitting of the melting curves using GraphPad Prism 8.2.1 for duplex 1 and H26a, or by finding the maximum of the first derivative of the curve using the Varian Cary Bio-100 software for duplex 2 and duplex 3.

[2] = tested on: RNA duplex 2 (5′-rArArArArUrUrUrArUrArUrUrArUrUrA-3′ and 5′-rUrArArUrArArUrArUrArArArUrUrUrU-3′); test: RNA thermal denaturation (Tm) by UV hyperchromicity, RNA duplex 2; format: binding
Protocol: as §1, with “3. Both methods of determining the Tm gave similar values for a given denaturation curve.” for “3.”

RNA duplex 1 = test: CD analysis of RNA duplex with peptides/depsipeptides; format: binding; conditions: for changes in CD spectra of the RNA duplex upon addition: RNA duplex 5 µM, peptide/depsipeptide 0–10 µM, MES-TEA buffer (60 mM)
Excerpt: The gel was cropped at the edges for clarity. […] […] Red and blue colors of the filled circles correspond to curves of the same color in panel (c). […] […] Scans were from 320 nm to 220 nm with a bandwidth of 5 nm, data pitch of 0.2 nm, and scan rate of 50 nm/min with three accumulations. […] Data were collected in independent triplicates and the data were averaged. Finally, data were smoothed and plotted using Matlab.

[3] = tested on: RNA duplex 3 (5′-rArArCrGrUrArUrArCrGrUrU-3′, palindromic); test: RNA thermal denaturation (Tm) by UV hyperchromicity, RNA duplex 3; format: binding
Protocol: as §1, with “3. Both methods of determining the Tm gave similar values for a given denaturation curve.” for “3.”

[4] = tested on: H26a RNA (5′-rArUrGrArGrUrArArCrCrGrUrArArGrGrUrGrArArArUrU-3′); test: RNA thermal denaturation (Tm) by UV hyperchromicity, H26a RNA hairpin; format: binding
Protocol: as §1, with “3. Both methods of determining the Tm gave similar values for a given denaturation curve.” for “3.”

[5] = cited from earlier work
Excerpt: Several lines of evidence support the importance of electrostatic interactions in the observed stabilizations of RNA duplexes. First, as would be expected, higher numbers of cationic residues present in the depsipeptide/peptide led to greater increases in RNA duplex Tm (Table 1, entries #1–7). Second, the effect of His-containing depsipeptides was pH-dependent (Figs. 2d and 3c, d), as expected based on the His pKa of ~6.0. […] The ineffectiveness of this sequence is probably due to the l ...

[6] = tested on: 10-mer RNA duplex (5′-6-FAM-rCrGrCrUrArArArUrCrG-3′ & 5′-rCrGrArUrUrUrArGrCrG-3IABkFQ-3′); test: RNA duplex Tm by rtPCR fluorescence with dry-down reaction mixtures; format: binding; conditions: not subjected to the dry-down reaction (non-dried)
Excerpt: Accordingly, we determined the effect of cationic proto-peptides on RNA duplex stability by monitoring changes in the melting temperature (Tm) of a short 10mer RNA duplex in the presence or absence of individual proto-peptide samples (Fig. 2). The complementary RNA strands were 5′- or 3′-labeled with either a fluorophore or a quencher so that the degree of RNA hybridization could be monitored by fluorescence in rtPCR instrumentation (Supplementary Fig. 9). […] For the Tm measurements, the proto-peptide samples were diluted to a final concentration of 25 mM (based on the amount of cationic amino acid used at the start of the dry-down) and mixed with the RNA duplex (2.5 μM each strand).
Dry-down reaction products were dissolved in deionized water to give a 100 mM stock solution based on the amount of monomers used at the start of the dry-down. […]
Prior to Tm analyses, RNA samples were annealed in the appropriate buffer by heating to 75 °C and slowly cooling to room temperature. […] For analyses involving dry-down reaction mixtures, the Tm was determined by monitoring fluorescence increase upon melting of a fluorophore/quencher-labeled RNA duplex (5′-rCrGrArUrUrUrArGrCrG-/3IABkFQ/-3′ and 3′-rGrCrUrArArArUrCrGrC-FAM-5′) using a BioRad CFX Connect rtPCR instrument with a heating ramp of 1 °C/min and 20 μL final sample volumes.

## CC(=O)N[C@@H](Cc1ccc(O)cc1)C(=O)NCC(=O)N[C@@H](C)C(=O)N[C@@H](CCN)C(=O)N[C@@H](CCCCN)C(=O)O[C@@H](C)C(=O)N[C@@H](CCN)C(=O)N[C@@H](CCCCN)C(=O)O[C@@H](C)C(=O)N[C@@H](CCN)C(=O)N[C@@H](CCCCN)C(=O)O[C@@H](C)C(=O)N[C@@H](CCN)C(=O)N[C@@H](CCCCN)C(N)=O [compound 14, Ac-Tyr-Gly-Ala-Dab-Lys-lac-Dab-Lys-lac-Dab-Lys-lac-Dab-Lys-NH2] (Ac-YGA[Dab]K[Lac][Dab]K[Lac][Dab]K[Lac][Dab]K-NH2)
[1]; observed Tm with peptide/depsipeptide 100 µM, pH 7.0, 10 mM phosphate, RNA alone 43.8 ± 0.4, mean ± SD of 2-4 independent experiments
  RNA duplex 1 Tm: 52.4 ± 1.5 °C
[1]; peptide/depsipeptide 100 μM, RNA 2.5 μM each strand, 10 mM phosphate, pH 7.0, vs RNA alone at matched pH, mean of 2–4 replicates
  RNA duplex 1 ΔTm: 8.6 °C
[2]; observed Tm with peptide/depsipeptide 100 µM, pH 7.0, RNA alone 33.7 ± 0.7, mean ± SD of 2-4 independent experiments
  RNA duplex 2 Tm: 42.8 ± 0.6 °C
[2]; peptide/depsipeptide 100 μM, RNA 2.5 μM each strand, pH 7.0, 10 mM phosphate, 100 mM NaCl, mean of 2–4 replicates
  RNA duplex 2 ΔTm: 9.1 °C
RNA duplex 1
  changes in CD spectra of the RNA duplex upon addition: changes were observed in the CD spectra
RNA duplex 1; change in CD signal at 266 nm, one-site binding model, RNA duplex 1 5 μM each strand, depsipeptide 0–10 μM, MES-TEA buffer pH 6, 5 °C, independent triplicates averaged, read-out: apparent Kd
  Kd: ~3000 nM
[3]; observed Tm with peptide/depsipeptide 100 µM, pH 7.0, RNA alone 48.6 ± 0.7, mean ± SD of 2-4 independent experiments
  RNA duplex 3 Tm: 58.6 ± 0.7 °C
[3]; peptide/depsipeptide 100 μM, 5.0 μM palindromic strand, pH 7.0, 10 mM phosphate, 100 mM NaCl, mean of 2–4 replicates
  RNA duplex 3 ΔTm: 10.0 °C
[4]; observed Tm with peptide/depsipeptide 100 µM, pH 7.0, RNA alone 53.4 ± 0.5, mean ± SD of 2-4 independent experiments
  H26a RNA Tm: 63.8 ± 0.6 °C
[4]; peptide/depsipeptide 100 μM, RNA 2.5 μM strand, pH 7.0, 10 mM phosphate, 100 mM NaCl, mean of 2–4 replicates
  H26a RNA ΔTm: 10.4 °C

## N[C@@H](Cc1c[nH]cn1)C(=O)O [His, histidine]
[5]; His side chain, no reference given
  pKa: ~ 6.0

## NCCCCC(O)C(=O)O (stereo not shown) [hah, 2-hydroxy-6-aminohexanoic acid]
[6]
  effect on RNA duplex Tm, non-dried controls: no effect on the Tm

## CC(=O)N[C@@H](Cc1ccc(O)cc1)C(=O)NCC(=O)N[C@@H](C)C(=O)N[C@@H](CCN)C(=O)N[C@@H](CCCCN)C(=O)N[C@@H](C)C(=O)N[C@@H](CCN)C(=O)N[C@@H](CCCCN)C(=O)N[C@@H](C)C(=O)N[C@@H](CCN)C(=O)N[C@@H](CCCCN)C(=O)N[C@@H](C)C(=O)N[C@@H](CCN)C(=O)N[C@@H](CCCCN)C(N)=O (Ac-YGA[Dab]KA[Dab]KA[Dab]KA[Dab]K-NH2)
RNA duplex 1; listed as Ac-Tyr-Gly-(Ala-Dab-Lys)4-NH2
  changes in CD spectra of the RNA duplex upon addition: physical association; also recorded: changes were observed in the CD spectra

## CC(=O)N[C@@H](Cc1ccc(O)cc1)C(=O)NCC(=O)N[C@@H](C)C(=O)N[C@@H](CCN)C(=O)N[C@@H](CCCCN)C(N)=O [Ac-Tyr-Gly-Ala-Dab-Lys-NH2] (Ac-YGA[Dab]K-NH2)
RNA duplex 1
  changes in CD spectra of the RNA duplex upon addition: physical association

## NCCC(O)C(=O)O (stereo not shown) [hab, 2-hydroxy-4-aminobutyric acid]
[6]
  effect on RNA duplex Tm, non-dried controls: no effect on the Tm

## NCC(N)C(=O)O (stereo not shown) [Dpr, 2,3-diaminopropionic acid]
[5]; when incorporated into oligomeric sequences
  pKa of side chain β-amine: ~ 6.3

— article PMC7305224, “Mutually stabilizing interactions between proto-peptides and RNA” (Nature Communications, 2020)
